Activity calls are given as the source filed them.
How the values were obtained:
[1] = biological target: Focal adhesion kinase 1 (Homo sapiens) (UniProt Q05397); assay: Inhibition of FAK phosphorylation in human MNNG/HOS cells incubated for 48 hrs by Western blot analysis; assay type: cell-based; details: dose 0.1-0.4 µM, DDE = dose-dependent effect
[2] = system: MG-63; assay: Antimigratory activity against human MG-63 cells assessed as reduction in cell spreading area upto 48 hrs by DAPI staining based immunofluorescence microscopic analysis; assay type: functional; details: dose 0.1-0.4 µM, DDE = dose-dependent effect
[3] = system: MG-63; assay: Inhibition of cell invasion in human MG-63 cells at 0.1 to 0.4 uM measured after 48 hrs by crystal violet staining based transwell assay; assay type: functional; details: dose 0.1-0.4 µM
[4] = system: MG-63; assay: Inhibition of cell migration in human MG-63 cells assessed as reduction of cell mobility after 48 hrs by scratch-wound healing assay; assay type: functional, cell-based; details: dose 0.1-0.4 µM, DDE = dose-dependent effect
[5] = biological target: T1, Platelet-derived growth factor receptor beta (Homo sapiens, UniProt P09619); assay: Inhibition of PDGFRbeta-mediated downstream signalling in human MNNG/HOS cells assessed as suppression of ERK phosphorylation at 0.1 to 0.4 uM measured after 48 hrs by western blot analysis; assay type: cell-based; details: dose 0.1-0.4 µM
T1 sequence (P09619 whole entry): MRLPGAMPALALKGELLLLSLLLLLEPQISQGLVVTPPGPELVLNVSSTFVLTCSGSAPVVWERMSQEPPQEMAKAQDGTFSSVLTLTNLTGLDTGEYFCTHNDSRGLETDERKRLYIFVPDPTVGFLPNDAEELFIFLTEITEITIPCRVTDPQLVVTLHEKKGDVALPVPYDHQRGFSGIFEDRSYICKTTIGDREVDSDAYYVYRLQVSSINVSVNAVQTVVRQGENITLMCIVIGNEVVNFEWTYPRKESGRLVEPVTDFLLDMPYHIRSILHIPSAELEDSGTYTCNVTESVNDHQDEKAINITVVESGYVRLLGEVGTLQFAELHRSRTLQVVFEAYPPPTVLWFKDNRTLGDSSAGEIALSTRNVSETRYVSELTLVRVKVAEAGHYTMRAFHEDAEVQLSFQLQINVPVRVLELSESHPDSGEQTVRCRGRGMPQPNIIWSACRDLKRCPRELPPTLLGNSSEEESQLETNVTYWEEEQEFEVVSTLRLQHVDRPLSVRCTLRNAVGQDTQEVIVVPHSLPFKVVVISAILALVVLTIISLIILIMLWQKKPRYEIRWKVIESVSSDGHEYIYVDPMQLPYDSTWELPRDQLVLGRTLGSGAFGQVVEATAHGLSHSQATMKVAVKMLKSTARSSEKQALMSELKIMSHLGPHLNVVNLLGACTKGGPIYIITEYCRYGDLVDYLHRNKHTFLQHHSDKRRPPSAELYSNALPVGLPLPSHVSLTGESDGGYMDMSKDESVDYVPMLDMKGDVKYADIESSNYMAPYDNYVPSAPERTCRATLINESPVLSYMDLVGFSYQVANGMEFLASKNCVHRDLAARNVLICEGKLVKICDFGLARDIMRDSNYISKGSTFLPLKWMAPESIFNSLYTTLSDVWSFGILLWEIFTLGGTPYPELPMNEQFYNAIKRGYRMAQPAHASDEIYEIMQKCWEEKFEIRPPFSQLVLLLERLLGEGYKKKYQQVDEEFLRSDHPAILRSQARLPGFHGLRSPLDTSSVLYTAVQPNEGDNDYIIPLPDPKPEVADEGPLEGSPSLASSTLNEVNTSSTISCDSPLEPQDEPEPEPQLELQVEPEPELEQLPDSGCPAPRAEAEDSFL

[6] = biological target: T1, Platelet-derived growth factor receptor beta; assay: Inhibition of PDGFRbeta-mediated downstream signalling in human MNNG/HOS cells assessed as suppression of AKT phosphorylation at 0.1 to 0.4 uM measured after 48 hrs by western blot analysis; assay type: cell-based; details: dose 0.1-0.4 µM
[7] = system: HOS-TE85; assay: Induction of apoptosis in human MNNG/HOS cells at 0.4 uM after 48 hrs by Annexin V/PI staining based flow cytometric analysis; assay type: functional, cell-based
[8] = biological target: T1, Platelet-derived growth factor receptor beta; assay: Inhibition of PDGFRbeta-mediated downstream signalling in human MG-63 cells assessed as suppression of ERK phosphorylation at 0.1 uM measured after 48 hrs by western blot analysis; assay type: cell-based
[9] = system: MG-63; assay: Antiinvasive activity against human MG-63 cells assessed as reduction in cell spreading area upto 48 hrs by DAPI staining based immunofluorescence microscopic analysis; assay type: functional; details: dose 0.1-0.4 µM, DDE = dose-dependent effect
[10] = system: MG-63; assay: Inhibition of cell adhesion in human MG-63 cells at 0.1 to 0.4 uM measured after 48 hrs by crystal violet staining based analysis; assay type: functional; details: dose 0.1-0.4 µM
[11] = system: MG-63; assay: Induction of cell cycle arrest in human MG-63 cells assessed as accumulation of cells at G0/G1 phase incubated for 48 hrs by propidium iodide staining based flow cytometry analysis; assay type: functional; details: dose 0.1-0.4 µM, DDE = dose-dependent effect
[12] = system: HOS-TE85; assay: Inhibition of PDGFRbeta expression in human MNNG/HOS cells incubated for 48 hrs by Western blot analysis; assay type: functional, cell-based
[13] = system: HOS-TE85; assay: Inhibition of cell adhesion in human MNNG/HOS cells at 0.1 to 0.4 uM measured after 48 hrs by crystal violet staining based analysis; assay type: functional; details: dose 0.1-0.4 µM
[14] = system: HOS-TE85; assay: Inhibition of cell migration in human MNNG/HOS cells assessed as reduction of cell mobility after 48 hrs by scratch-wound healing assay; assay type: functional, cell-based; details: dose 0.1-0.4 µM, DDE = dose-dependent effect
[15] = biological target: T1, Platelet-derived growth factor receptor beta; assay: Inhibition of PDGFRbeta phosphorylation in human MG-63 cells incubated for 48 hrs by Western blot analysis; assay type: cell-based
[16] = biological target: T1, Platelet-derived growth factor receptor beta; assay: Inhibition of PDGFRbeta-mediated downstream signalling in human MG-63 cells assessed as suppression of AKT phosphorylation at 0.1 uM measured after 48 hrs by western blot analysis; assay type: cell-based
[17] = system: HOS-TE85; assay: Inhibition of colony formation in human MNNG/HOS cells by crystal violet staining based analysis; assay type: functional, cell-based; details: dose 0.1-0.4 µM, DDE = dose-dependent effect
[18] = biological target: Focal adhesion kinase 1 (Homo sapiens) (UniProt Q05397); assay: Inhibition of FAK phosphorylation in human MG-63 cells incubated for 48 hrs by Western blot analysis; assay type: cell-based; details: dose 0.1-0.4 µM, DDE = dose-dependent effect

Chain of Focal adhesion kinase 1 (Homo sapiens) (Q05397 2-1052 limits assumed): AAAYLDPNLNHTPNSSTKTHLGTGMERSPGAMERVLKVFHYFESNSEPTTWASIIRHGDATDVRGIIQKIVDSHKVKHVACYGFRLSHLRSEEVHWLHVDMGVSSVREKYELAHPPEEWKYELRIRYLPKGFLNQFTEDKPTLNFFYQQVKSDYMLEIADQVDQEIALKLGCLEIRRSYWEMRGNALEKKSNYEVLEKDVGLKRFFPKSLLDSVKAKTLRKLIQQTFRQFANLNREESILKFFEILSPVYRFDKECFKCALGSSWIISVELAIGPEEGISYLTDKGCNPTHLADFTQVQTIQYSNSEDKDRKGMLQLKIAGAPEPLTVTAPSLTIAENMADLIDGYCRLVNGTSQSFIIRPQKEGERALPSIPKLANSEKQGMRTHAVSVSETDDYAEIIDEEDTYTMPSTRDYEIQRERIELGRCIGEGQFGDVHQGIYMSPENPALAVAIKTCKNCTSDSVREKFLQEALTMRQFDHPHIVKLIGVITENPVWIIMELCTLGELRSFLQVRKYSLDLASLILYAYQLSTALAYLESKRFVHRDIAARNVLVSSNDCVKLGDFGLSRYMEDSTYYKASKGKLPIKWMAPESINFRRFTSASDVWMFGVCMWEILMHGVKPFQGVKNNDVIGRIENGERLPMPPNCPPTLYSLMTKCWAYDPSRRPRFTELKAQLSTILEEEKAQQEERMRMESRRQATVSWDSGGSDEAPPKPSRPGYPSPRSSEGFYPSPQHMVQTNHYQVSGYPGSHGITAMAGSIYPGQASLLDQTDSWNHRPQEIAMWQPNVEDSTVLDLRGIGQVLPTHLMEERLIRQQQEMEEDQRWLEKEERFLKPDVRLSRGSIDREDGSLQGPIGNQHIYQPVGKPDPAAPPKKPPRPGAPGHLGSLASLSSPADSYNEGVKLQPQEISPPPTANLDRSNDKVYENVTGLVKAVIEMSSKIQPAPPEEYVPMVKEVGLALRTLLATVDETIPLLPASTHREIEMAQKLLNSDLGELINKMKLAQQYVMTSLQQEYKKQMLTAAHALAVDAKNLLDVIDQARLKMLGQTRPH

CCN1CCN(c2ccc(Nc3ncc(C)c(Nc4ccc5cn[nH]c5c4)n3)cc2OC)CC1
active: inhibition [1] Dde | Activity [2] Dde | inhibition [3] | inhibition [4] Dde | inhibition [5] | inhibition [6] | Activity [7] | inhibition [8] | Activity [9] Dde | inhibition [10] | Activity [11] Dde | inhibition [12] | inhibition [13] | inhibition [14] Dde | inhibition [15] | inhibition [16] | inhibition [17] Dde | inhibition [18] Dde

— ChEMBL document CHEMBL5154776, “Discovery of Potent and Orally Bioavailable Platelet-Derived Growth Factor Receptor (PDGFR) Inhibitors for the Treatment of Osteosarcoma” (J Med Chem, 2022)
